# Assay results as given in ChEMBL document CHEMBL3352382, “New benzimidazole-2-urea derivates as tubulin inhibitors” (Bioorg Med Chem Lett, 2014).
# Calls of active or inactive are those of the source. No cut-off for these calls is given here.
# Assays:
# [1] = system: COLO 205; test: Cytotoxicity against human COLO205 cells assessed as growth inhibition by MTT assay; type: functional, cell-based
# [2] = system: NCI-H460; test: Cytotoxicity against human NCI-H460 cells assessed as growth inhibition by MTT assay; type: functional, cell-based
# [3] = system: HeLa; test: Cytotoxicity against human HeLa cells assessed as growth inhibition after 72 hrs by CCK-8 assay; type: functional, cell-based
# [4] = system: HepG2; test: Cytotoxicity against human HepG2 cells assessed as growth inhibition after 72 hrs by CCK-8 assay; type: functional, cell-based; conditions: HepG2, 72 h
# [5] = Cytotoxicity against human MDA-MB-435S cells assessed as growth inhibition after 72 hrs by CCK-8 assay; type: functional, cell-based
# [6] = system: A-431; test: Cytotoxicity against human A431 cells assessed as growth inhibition after 72 hrs by CCK-8 assay; type: functional, cell-based; conditions: A-431, 72 h
# [7] = system: K562; test: Cytotoxicity against human K562 cells assessed as growth inhibition after 72 hrs by CCK-8 assay; type: functional, cell-based; conditions: K562, 72 h
# [8] = target: T1, Tubulin (Homo sapiens) (UniProt P68371+Q9H4B7+P0DPH7+P68366+Q13509+Q71U36+P04350+Q3ZCM7+P07437+P68363+Q9BQE3+Q6PEY2+Q13885+Q9BVA1+Q9BUF5); test: Inhibition of tubulin in human NCI-H460 cells assessed as reduction in spindles formation at 100 nM after 8 hrs by immunofluorescence technique; type: cell-based
# [9] = target: T1, Tubulin (Homo sapiens); test: Inhibition of tubulin in human NCI-H460 cells assessed as depolymerization of microtubule cytoskeleton after 8 hrs by immunofluorescence technique; type: cell-based
Activity [8],Activity [9],Structure (SMILES),IC50 [1] [nM],IC50 [2] [nM],IC50 [3] [nM],IC50 [4] [nM],IC50 [5] [nM],IC50 [6] [nM],IC50 [7] [nM]
,,O=C(Cc1ccccc1)Nc1nc2cc(Oc3ccccc3)ccc2[nH]1,11400,> 10000,,,,,
,,CC(=O)O[C@H]1C(=O)[C@@]2(C)[C@H]([C@H](OC(=O)c3ccccc3)[C@]3(O)C[C@H](OC(=O)[C@H](O)[C@@H](NC(=O)c4ccccc4)c4ccccc4)C(C)=C1C3(C)C)[C@]1(OC(C)=O)CO[C@@H]1C[C@@H]2O [PACLITAXEL],3,10,410,990,9,7,4
,,COc1cc2c(c(OC)c1OC)-c1ccc(OC)c(=O)cc1[C@@H](NC(C)=O)CC2 [COLCHICINE],3,21,704,1710,7,8,1
Active,Dose-dependent effect,CNC(=O)Nc1nc2cc(Oc3cccc(C#N)c3)ccc2[nH]1,,,,,,,
